Tests used:
pure chytrid culture = assay: Chytrid tolerance: pure chytrid culture in well plate, observed under a microscope (Examples 13-14); type: cell-based; conditions: 40 ppm
Method: Experiments were performed to determine chytrid tolerance to bleach, salt, Lufenuron (chemical biocide), and Rid Fungus (blend of natural organic herbs) for evaluation as a treatment for chytrids. A pure chytrid culture in a well plate was treated every 24 hours and observed under a microscope to determine the effect. An untreated culture was used as a control for comparison purposes. Qualitative assessments and quantitative estimates were made by visual observation under a microscope.
Several concentrations of salt and Rid Fungus (blend of organic herbs) were further investigated as a chytrid treatment, as in Example 13. A pure chytrid culture in a well plate was treated and visually observed under a microscope to determine the effect. An untreated culture was used as a control for comparison purposes.

chytrids = assay: Haematococcus red cyst cells infected with chytrids treated in well plates (Example 15); type: cell-based
Method: Several concentrations of bleach and Lufenuron were further investigated for their effectiveness as chytrid treatments for Haematococcus pluvialis during culturing. Cultures of Haematococcus pluvialis (Strain 1) red cyst cells infected with chytrids were treated in well plates (0.5 mL volume) with bleach or Lufenuron to evaluate the effect on the Haematococcus cells if bleach or Lufenuron were to be used as a contamination treatment. A first control culture of Haematococcus red cyst cells absent of chytrids and a second control culture of healthy Haematococcus red cyst cells inoculated with chytrids were used as comparisons for the treatments. The cultures were treated with bleach at or less than the tolerance level of Haematococcus: 0.01, 0.02 and 0.03 mL/L of 12.5% stock concentration bleach (calculated concentration 0.00125, 0.0025, and 0.00375 mL/L), or different concentrations of Lufenuron (0.01, 0.1 and 1% of culture volume). The cultures were observed under a microscope during the experiment to determine effectiveness.

[1] = tested on: chytrid zoospores and sporangia; conditions: 1% dose of a solution comprising 50% NaOH; 25, 40, and 50° C
Method: A solution comprising 50% sodium hydroxide (NaOH) was evaluated as a treatment for chytrids that could be applied to empty reactors in order to clean them for subsequent batches. A pure culture of chytrid zoospores and sporangia was treated with a 1% dose of a solution comprising 50% NaOH at temperatures of 25, 40, and 50° C. The cultures were then observed under a microscope for a reduction in the chytrid zoospores or sporangia number, or a reduction in the integrity of the chytrid cells.

[2] = tested on: Haematococcus pluvialis (Strain 1)

O=C(NC(=O)c1c(F)cccc1F)Nc1cc(Cl)c(OC(F)(F)C(F)C(F)(F)F)cc1Cl (stereo not drawn) [Lufenuron]
microscope observation of pure chytrid culture (pure chytrid culture; after 1 hour): swimming zoospores | microscope observation of pure chytrid culture (pure chytrid culture; after 24 hours): Swimming zoospores | microscope observation of pure chytrid culture (pure chytrid culture; after 48 hours and 72 hours): heavy bacteria with sporangia and zoospores | microscope observation of infected red cyst culture (chytrids; 0.01% of culture volume, after 24 and 48 hours): swimming zoospores and positive infection | microscope observation of infected red cyst culture (chytrids; 0.01% of culture volume, after 72 hours): Some swimming zoospores, Ochromonas (single-celled, motile, golden-brown alga), and active infection | microscope observation of infected red cyst culture (chytrids; 0.10% of culture volume, after 24 and 48 hours): dead sporangia, some infection, and active zoospores | microscope observation of infected red cyst culture (chytrids; 0.10% of culture volume, after 72 hours): Some swimming zoospores and active infection | microscope observation of infected red cyst culture (chytrids; 1.00% of culture volume, after 24 hours): dead sporangia and zoospores attached to cyst cells | microscope observation of infected red cyst culture (chytrids; 1.00% of culture volume, after 48 hours): Ochromonas, bacteria, dead sporangia, zoospores attached to cyst cells, and few swimming zoospores | microscope observation of infected red cyst culture (chytrids; 1.00% of culture volume, after 72 hours): Ochromonas, no active infection, and no zoospores

[Na+].[OH-] [NaOH, sodium hydroxide]
reduction in chytrid zoospores or sporangia number or integrity [1]: not a reduction in chytrid zoospores or sporangia number or integrity

bleach
known tolerance of Haematococcus pluvialis (Strain 1) [2]: 0.00375 mL/L
